For this experiment, the system named is oral mucositis. The experiment in a line: Treatment of oral mucositis in cancer subjects (case examples 2-6). Type of experiment: in vivo, human. As to conditions: grade IV mucositis, listed agents used with cryotherapy. How it is done: The efficacy and safety of the compositions comprising the disclosed acidic extract of myrrh resin were clinically assessed for prevention, treatment and/or improvement of oral and gastrointestinal mucositis.
In place of prophylactic incubation, the subject began using the composition comprising the disclosed acidic extract of myrrh resin in the form of gel four times a day.
(§1) The subject began using the composition comprising the disclosed acidic extract of myrrh resin in the form of gel four times a day.
G: oral examination performed on the second day of treatment. H: oral examination performed on the third day of treatment. I: oral examination performed on the fourth day of treatment.
as §1
D, E and F: oral examination performed on the first day of treatment. G, H, I and J: oral examination performed on the third day of treatment. K, L and M: oral examination performed on the fifth day of treatment.
B: oral examination performed on the first day of treatment. C: oral examination performed on the second day of treatment. D: oral examination performed on the third day of treatment. E: oral examination performed on the fourth day of treatment.

[1] abbreviates: Example 2: Hodgkin's Lymphoma, high dose chemotherapy.
Setting [2] is: Example 4: pancreatic adenocarcinoma, chemotherapy.
Where [3] appears, read: Example 5: Larynx CA, induction chemotherapy.
Where [4] appears, read: Example 6: larynx malignant neoplasma, radiation therapy.

For `O=C([O-])O.[Na+]` [sodium bicarbonate], the “effect of earlier treatment of the oral lesions” value (“effect” for short) is on record as “not effective” under setting [1], “mild decrease in mucositis” under setting [2], “mild decrease in mucositis” under setting [3] and “not effective” under setting [4].

As for `N=C(NCCCCCCNC(=N)NC(=N)Nc1ccc(Cl)cc1)NC(=N)Nc1ccc(Cl)cc1.O=C(O)[C@H](O)[C@@H](O)[C@H](O)[C@H](O)CO.O=C(O)[C@H](O)[C@@H](O)[C@H](O)[C@H](O)CO` [chlorhexidine gluconate], the “effect” value under setting [1] is recorded as “not effective”, the “effect” value under setting [2] is on record as “mild decrease in mucositis”, the “effect” value under setting [3] is reported as “mild decrease in mucositis” and the “effect” value under setting [4] was “not effective”.
